Like-named read-outs stand apart in the source and are kept apart here.
Legend:
Assay type in all cases: in vivo
Plutella xylostella = assay: Insecticidal activity against Plutella xylostella (soaking method); conditions: Plutella xylostella, 48 h, read-out: Mortality rate (%) P. xylostella
Source text: (§1) Preparation of test agent. Dissolve accurately weighed tested compound in DMF to prepare 1% mother liquor, and then dilute it with distilled water containing 0.1% Tween-80 to corresponding concentrations for later use.
Insecticidal activity against Plutella xylostella ([Yang et al., 2021]). The soaking method was adopted. After soaking a proper amount of radish leaves for 10 s, it was placed in a plastic Petri dish with filter paper and dried naturally in the shade. Each dish was inoculated with 10 2nd instar P. xylostella larvae and placed in an observation room at 22°C with light (16/8 h). The result was counted 2 days later, and the no-response insect body when it was lightly touched with a brush was regarded as dead. Each treatment was repeated three times, and DMF without the tested compound was used as a blank control.
(§2) The insecticidal activities of the test compounds against the abovementioned five insects were calculated by the following formula: P1=(K/N)×100, (1) P2=(Pt−P0)/(1−P0)×100, (2) where P1 is the mortality rate; K is the dead insect number; N is the total number of experimental insects; P2 is the corrected mortality rate; Pt is the mortality rate of treatment; P0 is the mortality rate of CK. If the mortality rate of CK is less than 5%, without the required correction, and if the mortality rate of CK is between 5 and 20%, P2 should be calculated according to formula II.

Nilaparvata lugens = assay: Insecticidal activity against Nilaparvata lugens (Potter spray tower); conditions: 24 h, read-out: Mortality rate (%) N. lugens
Source text: as §1
Insecticidal activity against Nilaparvata lugens ([Ghareeb et al., 2021]). The seedlings with two leaves and one heart were placed in a Petri dish with a bottom diameter of 3 cm and covered with white sand. After the 3rd instar nymphae of N. lugens were stunned by CO2, about 15 nymphae were received in each dish, and then 2.5 ml of the tested agent was sprayed with Potter spray tower. The mortality of N. lugens was investigated 1 day after the treatment. Each treatment was repeated three times, and DMF without the tested compound was used as a blank control.
as §2

Chilo suppressalis = assay: Insecticidal activity against Chilo suppressalis (soaking method); conditions: 96 h, read-out: Mortality rate (%) C. suppressalis
Source text: as §1
Insecticidal activity against Chilo suppressalis ([Huang et al., 2022]). The soaking method was adopted. The Zizania latifolia slices were soaked in a tested solution for 10 s, then taken out, and placed in a plastic Petri dish with filter paper to naturally dry in the shade. […] The result was counted 4 days later, and the no-response insect body when it was lightly touched with a brush was regarded as dead. Each treatment was repeated three times, and DMF without the tested compound was used as a blank control.
as §2

Aphis craccivora = assay: Insecticidal activity against Aphis craccivora (Potter spray tower); conditions: read-out: Mortality rate (%) A. craccivora
Method: as §1
Insecticidal activity against Aphis craccivora ([Liu et al., 2022]). About 30 nymphs of alfalfa aphid were placed on a horsebean leaf dish, and then 2.5 ml of the tested agent was sprayed with Potter spray tower. After treatment, they were cultured in an observation room at 20–22°C. The result was counted 24 h later, and the no-response insect body when it was lightly touched with tweezers was regarded as dead. Each treatment was repeated three times, and DMF without the tested compound was used as a blank control.
as §2

Helicoverpa armigera = assay: Insecticidal activity against Helicoverpa armigera (soaking method); conditions: Helicoverpa armigera, 48 h, read-out: Mortality rate (%) H. armigera
Source text: as §1
Insecticidal activity against Helicoverpa armigera. The soaking method was adopted ([Yang et al., 2022]). After soaking a proper amount of corn leaves for 10 s, they were placed in a plastic Petri dish with filter paper and dried naturally in the shade. Ten larvae of the 2nd instar H. armigera were attached to each dish and placed in an observation room at 26°C with light (16/8 h). The result was counted 2 days later, and the no-response insect body when it was lightly touched with a brush was regarded as dead. Each treatment was repeated 3 times, and DMF without the tested compound was used as a blank control.
as §2

[1] = 400 μg/mL, 2nd instar larvae, counted 2 days later
[2] = 400 μg/mL, 3rd instar nymphae, 1 day after treatment
[3] = 400 μg/mL, 3rd instar larvae, counted 4 days later
[4] = 25 μg/mL, 2nd instar larvae, counted 2 days later
[5] = 100 μg/mL, 2nd instar larvae, counted 2 days later

Row | SMILES | mortality at 400 µg/mL (Plutella xylostella; [1]) | mortality at 400 µg/mL (Nilaparvata lugens; [2]) | mortality at 400 µg/mL (Chilo suppressalis; [3]) | mortality at 400 µg/mL (Aphis craccivora; 400 μg/mL, counted 24 h later) | mortality at 400 µg/mL (Helicoverpa armigera; [1]) | mortality at 25 µg/mL (Plutella xylostella; [4]) | mortality at 100 µg/mL (Plutella xylostella; [5]) | other results
1 | CNC(=O)c1cc(Cl)cc(C)c1NC(=O)c1cc(Br)nn1-c1ncccc1Cl [CAT, chlorantraniliprole, reference compound] |  |  |  |  |  |  |  | mortality at 25 µg/mL (Plutella xylostella): 100%; mortality at 100 µg/mL (Plutella xylostella): 100%; mortality at 400 µg/mL (Plutella xylostella): 100%; mortality at 400 µg/mL (Nilaparvata lugens): 0%; mortality at 100 µg/mL (Chilo suppressalis): 100%; mortality at 400 µg/mL (Chilo suppressalis): 100%; mortality at 400 µg/mL (Aphis craccivora; 24 h): 0%; mortality at 400 µg/mL (Helicoverpa armigera): 100%
2 | O=C(/N=c1\ccccn1Cc1cnn(-c2ccccc2)c1C(F)(F)F)C(F)(F)F [Compound A1, (E)-2,2,2-trifluoro-N-(1-((1-phenyl-5-(trifluoromethyl)-1H-pyrazol-4-yl)methyl)pyridin-2(1H)-ylidene)acetamide] | 76.7% | 0% | 0% | 0% | 0% |  |  | 
3 | O=C(/N=c1\ccccn1Cc1cnn(-c2cccc(F)c2)c1C(F)(F)F)C(F)(F)F [Compound A3, (E)-2,2,2-trifluoro-N-(1-((1-(3-fluorophenyl)-5-(trifluoromethyl)-1H-pyrazol-4-yl)methyl)pyridin-2(1H)-ylidene)acetamide] | 100% | 0% | 0% | 0% | 0% | 0% | 86.7% | 
4 | O=C(/N=c1\ccccn1Cc1cnn(-c2ccc(Cl)cc2)c1C(F)(F)F)C(F)(F)F [Compound A4, (E)-N-(1-((1-(4-chlorophenyl)-5-(trifluoromethyl)-1H-pyrazol-4-yl)methyl)pyridin-2(1H)-ylidene)-2,2,2-trifluoroacetamide] | 0% | 0% | 0% | 0% | 0% |  |  | 
5 | O=C(/N=c1\ccccn1Cc1cnn(-c2ccc(C(F)(F)F)cc2)c1C(F)(F)F)C(F)(F)F [Compound A5, (E)-2,2,2-trifluoro-N-(1-((5-(trifluoromethyl)-1-(4-(trifluoromethyl)phenyl)-1H-pyrazol-4-yl)methyl)pyridin-2(1H)-ylidene)acetamide] | 73.3% | 0% | 0% | 0% | 0% |  |  | 
6 | O=C(/N=c1\ccccn1Cc1cnn(-c2cccc(Cl)c2)c1C(F)F)C(F)(F)F [Compound A6, (E)-N-(1-((1-(3-chlorophenyl)-5-(difluoromethyl)-1H-pyrazol-4-yl)methyl)pyridin-2(1H)-ylidene)-2,2,2-trifluoroacetamide] | 50% | 100% | 0% | 0% | 0% |  |  | mortality at 100 µg/mL (Nilaparvata lugens; 100 μg/mL, 3rd instar nymphae, 1 day after treatment): 0%
7 | O=C(/N=c1\ccccn1Cc1cnn(-c2cccc(F)c2)c1C(F)F)C(F)(F)F [Compound A7, (E)-N-(1-((5-(difluoromethyl)-1-(3-fluorophenyl)-1H-pyrazol-4-yl)methyl)pyridin-2(1H)-ylidene)-2,2,2-trifluoroacetamide] | 63.3% | 0% | 0% | 0% | 0% |  |  | 
8 | O=C(/N=c1\ccccn1Cc1cnn(-c2ccc(F)cc2)c1C(F)F)C(F)(F)F [Compound A8, (E)-N-(1-((5-(difluoromethyl)-1-(4-fluorophenyl)-1H-pyrazol-4-yl)methyl)pyridin-2(1H)-ylidene)-2,2,2-trifluoroacetamide] | 0% | 0% | 0% | 0% | 0% |  |  | 
9 | COCC(=O)/N=c1\ccccn1Cc1cnn(-c2ccccc2)c1C(F)(F)F [Compound B1, (E)-2-methoxy-N-(1-((1-phenyl-5-(trifluoromethyl)-1H-pyrazol-4-yl)methyl)pyridin-2(1H)-ylidene)acetamide] | 100% | 48.9% | 0% | 0% | 0% | 16.7% | 100% | 
10 | COCC(=O)/N=c1\ccccn1Cc1cnn(-c2ccccc2Cl)c1C(F)(F)F [Compound B2, (E)-N-(1-((1-(2-chlorophenyl)-5-(trifluoromethyl)-1H-pyrazol-4-yl)methyl)pyridin-2(1H)-ylidene)-2-methoxyacetamide] | 100% | 0% | 0% | 0% | 0% | > 70% | 96.7% | 
11 | COCC(=O)/N=c1\ccccn1Cc1cnn(-c2cccc(F)c2)c1C(F)(F)F [Compound B3, (E)-N-(1-((1-(3-fluorophenyl)-5-(trifluoromethyl)-1H-pyrazol-4-yl)methyl)pyridin-2(1H)-ylidene)-2-methoxyacetamide] | 100% | 0% | 0% | 0% | 0% | > 70% | 100% | 
12 | COCC(=O)/N=c1\ccccn1Cc1cnn(-c2ccc(C(F)(F)F)cc2)c1C(F)(F)F [Compound B5, (E)-2-methoxy-N-(1-((5-(trifluoromethyl)-1-(4-(trifluoromethyl)phenyl)-1H-pyrazol-4-yl)methyl)pyridin-2(1H)-ylidene)acetamide] | 100% | 0% | 0% | 0% | 0% | 0% | 100% | 
13 | O=C(/N=c1\ccccn1Cc1cnn(-c2ccc(C(F)(F)F)cc2)c1C(F)(F)F)C(F)(F)C(F)(F)F [Compound C5, (E)-2,2,3,3,3-pentafluoro-N-(1-((5-(trifluoromethyl)-1-(4-(trifluoromethyl)phenyl)-1H-pyrazol-4-yl)methyl)pyridin-2(1H)-ylidene)propanamide] | 70% |  | 100% | 0% | 0% |  |  | mortality at 100 µg/mL (Chilo suppressalis; 100 μg/mL, 3rd instar larvae, counted 4 days later): 0%
14 | O=C(/N=c1\ccccn1Cc1cnn(-c2ccc(F)cc2)c1C(F)F)C(F)(F)C(F)(F)F [Compound C8, (E)-N-(1-((5-(difluoromethyl)-1-(4-fluorophenyl)-1H-pyrazol-4-yl)methyl)pyridin-2(1H)-ylidene)-2,2,3,3,3-pentafluoropropanamide] |  | 0% | 0% | 0% | 0% |  |  | 

Reference: paper PMC9574050, “Design, synthesis, and insecticidal activity of a novel series of flupyrimin analogs bearing 1-aryl-1H-pyrazol-4-yl subunits” (Frontiers in Chemistry, 2022)
